# How the values were obtained:
# Assay in all cases: Qualitative test of AARS substrate specificity (molybdenum blue method)
# Type in all cases: biochemical, Thermotoga maritima MSB8 strain
# Parameters in all cases: key: +: Activity was detected; −: Activity was not detected
# [1] = biological target: T1, Thermotoga-derived SerRS (Thermotoga maritima, UniProt Q9X199); conditions: Tyr 1 mM, other amino acids 5 mM; hydroxylamine 1000 mM; SerRS 0.1 mg/ml (1 mU/ml); 30° C.
# T1 construct: His tag (C); made in house; host or cells: Escherichia coli BL21 (DE3)
# Protocol: (§1) A test sample containing an amino acid as the measurement subject and a reaction mixture for quantifying amino acid having the following composition were mixed. The mixture was left standing at 30° C. to allow the AARS reaction to advance. The mixture in a volume of 33 μl, 66 μl of water, and 1 μl of a 300 U/ml yeast pyrophosphatase solution were mixed, and left standing at room temperature for 20 minutes to allow the pyrophosphatase reaction to advance. Then, the reaction mixture was mixed with 100 μl of a color development solution A and 30 μl of a color developing solution B having the following compositions, then the mixture was left standing at room temperature for 5 minutes, and the absorbance was measured at 700 nm or 900 nm with a microplate reader.
# (§2) Reaction mixture for quantifying amino acid: 20 mM Tris-HCl (pH 7.0), 5 mM MgCl2, 2 mM ATP, and AARS (concentrations are final concentrations obtained after mixing with test sample)
# (§3) Color developing solution A: A solution obtained by mixing water and concentrated sulfuric acid at a ratio of 3:1 and dissolving (NH4)6Mo7O24.4H2O in the mixture at a concentration of 0.066 g/ml
# (§4) Color developing solution B: A solution obtained by mixing water and concentrated sulfuric acid at a ratio of 10000:7 and dissolving FeSO4.7H2O in the mixture at a concentration of 145 mg/ml
# (§5) Presence or absence of pyrophosphate generation was verified for the Thermotoga-derived CysRS, HisRS, LysRS, ProRS, SerRS, TrpRS, and TyrRS by using the AARS activity measurement method described in 9. and standard solutions of the various amino acids as test samples. AARSs were added to the reaction mixture at final concentrations of 0.3 (8 mU/ml), 0.1, 0.2 (3 mU/ml), 0.2, 0.1 (1 mU/ml), 0.1, 0.2 (20 mU/ml) mg/ml, respectively. The reaction mixtures were prepared so that the final concentration of Tyr was 1 mM, and the final concentrations of the other amino acids were 5 mM. As for the hydroxylamine concentration, it was added at a final concentration of 1000 mM for all the cases. Further, presence or absence of pyrophosphate production was also verified for the Thermus-derived MetRS and TyrRS by using the AARS activity measurement method described in 10. and standard solutions of the various amino acids as test samples. The reaction mixtures were prepared so that the final concentrations of the amino acids were 200 μM. Hydroxylamine was added at a final concentration of 400 mM.
# (§6) Detection or no detection of the activity in the reaction mixtures containing a combination of each AARS and amino acid are shown in Table 2. The symbol + indicates detection of the activity, and − indicates no detection of the activity.
# [2] = biological target: T2, Thermotoga-derived TrpRS (Thermotoga maritima, UniProt Q9WYW2); conditions: Tyr 1 mM, other amino acids 5 mM; hydroxylamine 1000 mM; TrpRS 0.1 mg/ml; 30° C.
# T2 construct: His tag (C); made in house; host or cells: Escherichia coli BL21 (DE3)
# T2 sequence (Q9WYW2 1-328): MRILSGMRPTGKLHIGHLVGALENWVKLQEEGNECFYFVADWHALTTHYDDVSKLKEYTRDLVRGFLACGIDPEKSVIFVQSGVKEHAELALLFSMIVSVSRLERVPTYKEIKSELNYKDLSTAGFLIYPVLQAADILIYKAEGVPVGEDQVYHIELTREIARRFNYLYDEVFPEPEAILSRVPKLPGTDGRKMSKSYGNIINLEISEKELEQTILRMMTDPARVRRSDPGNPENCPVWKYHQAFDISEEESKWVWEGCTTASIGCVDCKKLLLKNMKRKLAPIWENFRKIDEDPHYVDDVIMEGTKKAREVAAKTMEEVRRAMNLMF
# Protocol: as §1, §2, §3, §4, §5, §6
# [3] = biological target: T3, Thermotoga-derived LysRS (Thermotoga maritima, UniProt Q9X231); conditions: Tyr 1 mM, other amino acids 5 mM; hydroxylamine 1000 mM; LysRS 0.2 mg/ml (3 mU/ml); 30° C.
# T3 construct: His tag (C); made in house; host or cells: Escherichia coli BL21 (DE3)
# T3 sequence (Q9X231 1-502): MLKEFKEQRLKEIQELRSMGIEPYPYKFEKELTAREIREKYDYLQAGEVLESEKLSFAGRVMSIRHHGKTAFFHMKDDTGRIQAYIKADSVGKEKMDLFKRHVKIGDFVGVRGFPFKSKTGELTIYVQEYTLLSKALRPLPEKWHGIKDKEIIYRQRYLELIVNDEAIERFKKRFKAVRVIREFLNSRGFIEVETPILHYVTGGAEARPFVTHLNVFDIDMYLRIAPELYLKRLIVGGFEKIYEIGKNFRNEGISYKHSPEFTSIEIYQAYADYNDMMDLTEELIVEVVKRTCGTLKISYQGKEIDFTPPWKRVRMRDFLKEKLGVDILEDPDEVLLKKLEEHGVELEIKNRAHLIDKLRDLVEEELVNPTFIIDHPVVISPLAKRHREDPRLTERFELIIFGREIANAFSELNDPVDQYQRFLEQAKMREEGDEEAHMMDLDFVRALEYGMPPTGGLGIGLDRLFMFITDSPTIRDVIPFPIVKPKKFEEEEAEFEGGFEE
# Protocol: as §1, §2, §3, §4, §5, §6
# [4] = biological target: T4, Thermotoga-derived TyrRS (Thermotoga maritima, UniProt Q9WYU8); conditions: Tyr 1 mM, other amino acids 5 mM; hydroxylamine 1000 mM; TyrRS 0.2 mg/ml (20 mU/ml); 30° C.
# T4 construct: The amplification products were each inserted into pET-28a to obtain plasmids for expression of respective AARSs; His tag (N); made in house; host or cells: Escherichia coli BL21 (DE3)
# T4 sequence (Q9WYU8 1-401): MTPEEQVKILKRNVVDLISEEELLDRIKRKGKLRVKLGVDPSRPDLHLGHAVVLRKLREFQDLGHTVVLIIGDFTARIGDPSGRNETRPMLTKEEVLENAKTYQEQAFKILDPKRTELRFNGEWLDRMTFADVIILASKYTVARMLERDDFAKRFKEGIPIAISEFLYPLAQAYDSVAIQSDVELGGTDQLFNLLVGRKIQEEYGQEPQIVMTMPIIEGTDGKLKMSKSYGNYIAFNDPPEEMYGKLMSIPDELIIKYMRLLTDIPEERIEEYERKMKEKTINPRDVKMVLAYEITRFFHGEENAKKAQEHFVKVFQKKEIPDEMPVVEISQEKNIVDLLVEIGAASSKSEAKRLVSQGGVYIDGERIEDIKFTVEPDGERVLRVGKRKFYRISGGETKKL
# Protocol: as §1, §2, §3, §4, §5, §6
# T1 sequence (Q9X199 whole entry): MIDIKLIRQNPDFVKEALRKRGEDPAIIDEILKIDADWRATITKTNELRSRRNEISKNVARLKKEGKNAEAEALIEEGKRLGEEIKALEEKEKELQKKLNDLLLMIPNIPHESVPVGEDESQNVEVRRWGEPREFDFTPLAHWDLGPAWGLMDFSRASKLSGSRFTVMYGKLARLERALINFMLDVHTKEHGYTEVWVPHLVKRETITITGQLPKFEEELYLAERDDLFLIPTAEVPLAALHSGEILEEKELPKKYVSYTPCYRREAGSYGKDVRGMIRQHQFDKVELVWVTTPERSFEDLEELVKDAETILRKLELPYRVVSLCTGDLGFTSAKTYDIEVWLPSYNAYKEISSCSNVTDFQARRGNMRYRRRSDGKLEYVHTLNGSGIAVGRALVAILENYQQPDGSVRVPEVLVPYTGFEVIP
smiles,measurement,setting,value
"N[C@@H](CCC(=O)O)C(=O)O [Glu, L-glutamic acid]","Detection of the activity (pyrophosphate generation), SerRS",[1],−
same,"Detection of the activity (pyrophosphate generation), TrpRS",[2],−
same,"Detection of the activity (pyrophosphate generation), LysRS",[3],−
same,"Detection of the activity (pyrophosphate generation), TyrRS (Thermotoga)",[4],−
"N[C@@H](Cc1ccc(O)cc1)C(=O)O [Tyr, L-tyrosine]","Detection of the activity (pyrophosphate generation), SerRS",[1],−
same,"Detection of the activity (pyrophosphate generation), TrpRS",[2],−
same,"Detection of the activity (pyrophosphate generation), LysRS",[3],−
same,"Detection of the activity (pyrophosphate generation), TyrRS (Thermotoga)",[4],+
"NC(=O)C[C@H](N)C(=O)O [Asn, L-asparagine]","Detection of the activity (pyrophosphate generation), SerRS",[1],−
same,"Detection of the activity (pyrophosphate generation), TrpRS",[2],−
same,"Detection of the activity (pyrophosphate generation), LysRS",[3],−
same,"Detection of the activity (pyrophosphate generation), TyrRS (Thermotoga)",[4],−
"CSCC[C@H](N)C(=O)O [Met, L-methionine]","Detection of the activity (pyrophosphate generation), SerRS",[1],−
same,"Detection of the activity (pyrophosphate generation), TrpRS",[2],−
same,"Detection of the activity (pyrophosphate generation), LysRS",[3],−
same,"Detection of the activity (pyrophosphate generation), TyrRS (Thermotoga)",[4],−
"CC(C)[C@H](N)C(=O)O [Val, L-valine]","Detection of the activity (pyrophosphate generation), SerRS",[1],−
same,"Detection of the activity (pyrophosphate generation), TrpRS",[2],−
same,"Detection of the activity (pyrophosphate generation), LysRS",[3],−
same,"Detection of the activity (pyrophosphate generation), TyrRS (Thermotoga)",[4],−
"NCCCC[C@H](N)C(=O)O [Lys, L-lysine]","Detection of the activity (pyrophosphate generation), SerRS",[1],−
same,"Detection of the activity (pyrophosphate generation), TrpRS",[2],−
same,"Detection of the activity (pyrophosphate generation), LysRS",[3],+
same,"Detection of the activity (pyrophosphate generation), TyrRS (Thermotoga)",[4],−
"N[C@@H](Cc1c[nH]cn1)C(=O)O [His, L-histidine]","Detection of the activity (pyrophosphate generation), SerRS",[1],−
same,"Detection of the activity (pyrophosphate generation), TrpRS",[2],−
same,"Detection of the activity (pyrophosphate generation), LysRS",[3],−
same,"Detection of the activity (pyrophosphate generation), TyrRS (Thermotoga)",[4],−
"CC(C)C[C@H](N)C(=O)O [Leu, L-leucine]","Detection of the activity (pyrophosphate generation), SerRS",[1],−
same,"Detection of the activity (pyrophosphate generation), TrpRS",[2],−
same,"Detection of the activity (pyrophosphate generation), LysRS",[3],−
same,"Detection of the activity (pyrophosphate generation), TyrRS (Thermotoga)",[4],−
"N[C@@H](CO)C(=O)O [Ser, L-serine]","Detection of the activity (pyrophosphate generation), SerRS",[1],+
same,"Detection of the activity (pyrophosphate generation), TrpRS",[2],−
same,"Detection of the activity (pyrophosphate generation), LysRS",[3],−
same,"Detection of the activity (pyrophosphate generation), TyrRS (Thermotoga)",[4],−
"NCC(=O)O [Gly, glycine]","Detection of the activity (pyrophosphate generation), SerRS",[1],−
same,"Detection of the activity (pyrophosphate generation), TrpRS",[2],−
same,"Detection of the activity (pyrophosphate generation), LysRS",[3],−
same,"Detection of the activity (pyrophosphate generation), TyrRS (Thermotoga)",[4],−
"C[C@@H](O)[C@H](N)C(=O)O [Thr, L-threonine]","Detection of the activity (pyrophosphate generation), SerRS",[1],−
same,"Detection of the activity (pyrophosphate generation), TrpRS",[2],−
same,"Detection of the activity (pyrophosphate generation), LysRS",[3],−
same,"Detection of the activity (pyrophosphate generation), TyrRS (Thermotoga)",[4],−
"N[C@@H](CC(=O)O)C(=O)O [Asp, L-aspartic acid]","Detection of the activity (pyrophosphate generation), SerRS",[1],−
same,"Detection of the activity (pyrophosphate generation), TrpRS",[2],−
same,"Detection of the activity (pyrophosphate generation), LysRS",[3],−
same,"Detection of the activity (pyrophosphate generation), TyrRS (Thermotoga)",[4],−
"N[C@@H](CS)C(=O)O [Cys, L-cysteine]","Detection of the activity (pyrophosphate generation), SerRS",[1],−
same,"Detection of the activity (pyrophosphate generation), TrpRS",[2],−
same,"Detection of the activity (pyrophosphate generation), LysRS",[3],−
same,"Detection of the activity (pyrophosphate generation), TyrRS (Thermotoga)",[4],−
"N[C@@H](Cc1ccccc1)C(=O)O [Phe, L-phenylalanine]","Detection of the activity (pyrophosphate generation), SerRS",[1],−
same,"Detection of the activity (pyrophosphate generation), TrpRS",[2],−
same,"Detection of the activity (pyrophosphate generation), LysRS",[3],−
same,"Detection of the activity (pyrophosphate generation), TyrRS (Thermotoga)",[4],−
"NC(=O)CC[C@H](N)C(=O)O [Gln, L-glutamine]","Detection of the activity (pyrophosphate generation), SerRS",[1],−
same,"Detection of the activity (pyrophosphate generation), TrpRS",[2],−
same,"Detection of the activity (pyrophosphate generation), LysRS",[3],−
same,"Detection of the activity (pyrophosphate generation), TyrRS (Thermotoga)",[4],−
"O=C(O)[C@@H]1CCCN1 [Pro, L-proline]","Detection of the activity (pyrophosphate generation), SerRS",[1],−
same,"Detection of the activity (pyrophosphate generation), TrpRS",[2],−
same,"Detection of the activity (pyrophosphate generation), LysRS",[3],−
same,"Detection of the activity (pyrophosphate generation), TyrRS (Thermotoga)",[4],−
"C[C@H](N)C(=O)O [Ala, L-alanine]","Detection of the activity (pyrophosphate generation), SerRS",[1],−
same,"Detection of the activity (pyrophosphate generation), TrpRS",[2],−
same,"Detection of the activity (pyrophosphate generation), LysRS",[3],−
same,"Detection of the activity (pyrophosphate generation), TyrRS (Thermotoga)",[4],−
"N[C@@H](Cc1c[nH]c2ccccc12)C(=O)O [Trp, L-tryptophan]","Detection of the activity (pyrophosphate generation), SerRS",[1],−
same,"Detection of the activity (pyrophosphate generation), TrpRS",[2],+
same,"Detection of the activity (pyrophosphate generation), LysRS",[3],−
same,"Detection of the activity (pyrophosphate generation), TyrRS (Thermotoga)",[4],−

# From patent publication US9708639B2, “Method for quantifying amino acids with pyrophosphate” (TOYAMA PREFECTURE, priority 2012, dated 2017)
